According to ChEMBL document CHEMBL3507680, “University of Dundee, Gates Library screen for HepG2 cell viability”:

Test: Human HepG2 cell viability assay in 384 well format
Assay type: toxicity, cell-based
Set-up: dose 125 nL, time 70.5 hour; concentration not given beside the values
Conditions: HepG2 cells, read-out: Inhibition

Structure (SMILES)	cytotoxicity at 70.5 h [%]
Cc1ccccc1N1CCN(C(=O)CC(C)C)CC1	0.0324
CCCN1CCC(NC(=O)c2csc(C)c2-c2ccccc2)CC1	-9.07
Cc1ccc2c(c1)c(CNC(=O)C1CC(=O)N(CCN(C)C)C1)nn2C (configuration not stated)	-0.487
N#CC1CCCN(c2ncnc3c2CCN(Cc2ccccc2)CC3)C1 (configuration not stated)	2.53
CCN(CCO)C[C@@H]1CN(c2nc(C)cc(C)n2)C[C@@H]1CO	-2.32
Cc1cc(=O)[nH]c(=O)n1-c1cccc(Cl)c1Cl	-12.3
O=C(CC(F)(F)F)N1CCc2[nH]nc(-c3ccc4c(c3)OCO4)c2C1	7.4
CN1CCC(Oc2ccc(-n3ccnc3-c3ccncc3)cc2)CC1	-13.2
O=S(=O)(c1c(N2CCCCC2)ccc2nonc12)N1CCCCC1	-8.4
Cc1ccc(C(=O)NCCC(C)C)cc1NS(C)(=O)=O	-10
CN(C)Cc1nnc(C2CCCN(c3ncccc3F)C2)n1C (configuration not stated)	24.4
Cc1cc(C)c2nc(CN[C@H]3CCCNC3)cc(O)c2c1	-2.89
CC(=O)Nc1ncc(S(=O)(=O)N2CCC(C)CC2)s1	-8.58
COc1cc(-c2cnnc(NCCCOC(C)C)n2)cc(OC)c1OC	6.95
Cc1ccnc(NC(=O)C(C)Cn2cncn2)c1 (configuration not stated)	13.8
COCCNc1nc2c(c(NCC3CCOC3)n1)CCNCC2 (configuration not stated)	-0.779
CCC[C@H]1CN(Cc2cc(C#N)n(C)c2C)C[C@@H]1NS(=O)(=O)CC	-6.14
CCc1cc(C(=O)N2CC[C@@H](c3ccc4c(c3)OCO4)[C@H](O)C2)ccn1	16.7
COc1ccc(C(=O)n2nc(C)c(C)c2C)cc1	-2.07

Structure (SMILES)	cytotoxicity at 70.5 h [%]
Cc1cccc2c1nc(COCC(=O)O)n2-c1ccsc1	-4.32
O=C(C1CCOC1)N1CCN(Cc2ccc3c(c2)CCO3)CC1 (configuration not stated)	-9.08
Cc1nn(C)c(Cl)c1C1CCCN1Cc1nnc(C2CC2)o1 (configuration not stated)	-5.62
COCCc1noc(CN2CCCC2c2c(C)nn(C)c2Cl)n1 (configuration not stated)	-0.0583
Cc1ccc(CN(C)C(=O)c2ccc(NC3CC3)nc2)o1	-13.2
N#Cc1cccc(C(=O)N2CCN(c3ncccn3)CC2)c1	14.3
Cc1nccc(-c2cccc(NCC(=O)N3CCOCC3)c2)n1	-4.16
Cc1nc(C(C)C)sc1C(=O)NCCNc1ncccn1	-10.9
Cc1noc(NC(=O)c2cccc(Br)c2)n1	-0.644
Cc1noc(NC(=O)CCNC(=O)c2ccc(Br)cc2)n1	14.6
Cc1ccc(C(=O)Nc2nc(C)no2)cc1	-4.79
Cc1noc(NC(=O)c2ccc(F)cc2)n1	-3.99
CCCc1nc(C)c(C(=O)NCCNc2ncccn2)s1	-6.59
O=C(NCCn1cccn1)c1ccn(-c2cccc(F)c2)n1	-11.4
COc1ccc(-n2ccc(C(=O)NCCn3ccnc3)n2)cc1	-8.04
COc1ccc(C(=O)N(C)Cc2c(C)noc2C)cn1	-4.2
Cc1nc(C)c(C(=O)NCCNc2ncccn2)s1	-5.75
Cc1cc(C)c(CNC(=O)NCC(O)c2ccccc2F)c(=O)[nH]1 (configuration not stated)	-2.12
Cc1cc(C)c(CNC(=O)N(C)Cc2cccc(F)c2)c(=O)[nH]1	0.933

Structure (SMILES)	cytotoxicity at 70.5 h [%]
Cc1noc(C)c1CN(C)C(=O)c1ccc(O)nc1	-5.72
COc1ccc(CNC(=O)NC(C)(C(=O)O)c2ccco2)cc1F (configuration not stated)	16.9
CC(NC(=O)NCc1cccc(F)c1)(C(=O)O)c1ccco1 (configuration not stated)	-8.22
COc1ccc(C(O)CNC(=O)NCc2c(C)cc(C)[nH]c2=O)cc1 (configuration not stated)	-5.03
CCOc1ccnc(N2CCN(C(=O)c3ccc(OC)cc3)CC2)n1	-12.5
CCc1nnsc1C(=O)N1CCCC(n2ccnc2C(C)C)C1 (configuration not stated)	-5.12
Cc1ccc(CC(=O)N2CCCC(n3ccnc3C(C)C)C2)cn1 (configuration not stated)	-7.44
Cc1cc(CN2CCCC2c2c(C)nn(C)c2Cl)on1 (configuration not stated)	0.0053
CC(NC(=O)NCc1ccccc1F)(C(=O)O)c1ccco1 (configuration not stated)	-2.87
CC(NC(=O)CSCC#N)c1ccc(F)cc1 (configuration not stated)	10.1
Cc1nccn1-c1cc(CNC(=O)CC2CCCO2)ccn1 (configuration not stated)	16.3
O=C(NCc1ccccc1Cn1cncn1)C1CCCC1	-3.85
CN(Cc1cccc(O)c1)C(=O)Nc1cccnc1N1CCCC1	16.2
CC(NC(=O)CSCC#N)c1ccc(Cl)cc1 (configuration not stated)	-4.42
Cc1ccoc1C(=O)NC1CCN(CC(=O)N(C)c2ccccc2)CC1	18
Cc1ccc(C(=O)NC2CCN(CC(=O)N(C)c3ccccc3)CC2)o1	-4.99
CN(C(=O)CN1CCC(NC(=O)c2cccs2)CC1)c1ccccc1	-6.85
CC(C)c1nn(C)c(N(C)C)c1CNC(C)c1ccc2c(c1)OCO2 (configuration not stated)	20
Cc1ccc(OCCSC2=NCCN2)cc1	-4.93
